According to ChEMBL document CHEMBL1201862, “PubChem BioAssay data set” (2004):
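Where inhibition never reached the appropriate level, the endpoint shown equals the highest concentration tested. Otherwise, values were interpolated linearly from a five-concentration, 48-hour dose response in 96-well plates. At the GI50, growth is halved.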 Active and inactive are the calls of the source. Cut-off read from the data, not from the text of the source: active = GI50 up to about 1.1 µM and inactive = higher.

Columns and labels:
Test in all cases: NCI anticancer screen, dose series, 48 h
[1] = tested on: NCI-H522
[2] = tested on: T47D
[3] = tested on: SK-MEL-5
[4] = tested on: RXF 393
[5] = tested on: OVCAR-8
[6] = tested on: NCI-H226
[7] = tested on: A549
[8] = tested on: SNB-75
[9] = tested on: M14
[10] = tested on: SK-MEL-28
[11] = tested on: BT-549
[12] = tested on: UACC-62
[13] = tested on: MDA-MB-231
[14] = tested on: ACHN
[15] = tested on: COLO 205
[16] = tested on: EKVX
[17] = tested on: KM12
[18] = tested on: SNB-19
[19] = tested on: CCRF-CEM
[20] = tested on: SN12C
[21] = tested on: Hs-578T
[22] = tested on: CAKI-1
[23] = tested on: 786-0
[24] = tested on: OVCAR-3
[25] = tested on: OVCAR-5
[26] = tested on: HCT-15
[27] = tested on: MDA-N
[28] = tested on: HOP-92
[29] = tested on: HCC 2998
[30] = tested on: IGROV-1
[31] = tested on: TK-10
[32] = tested on: HT-29
[33] = tested on: MCF7
[34] = tested on: SW-620
[35] = tested on: SF-268
[36] = tested on: A498
[37] = tested on: Malme-3M
[38] = tested on: K562
[39] = tested on: SK-OV-3
[40] = tested on: SF-295
[41] = tested on: PC-3
[42] = tested on: LOX IMVI
[43] = tested on: SF-539
[44] = tested on: SR
[45] = tested on: NCI-H460
[46] = tested on: OVCAR-4
[47] = tested on: UO-31
[48] = tested on: RPMI-8226
[49] = tested on: HL-60
[50] = tested on: MOLT-4
[51] = tested on: HCT-116
[52] = tested on: NCI/ADR-RES
[53] = tested on: HOP-62
[54] = tested on: DU-145
[55] = tested on: NCI-H23
[56] = tested on: SK-MEL-2
[57] = tested on: UACC-257
[58] = tested on: MDA-MB-435
[59] = tested on: U-251

COc1c2c(nc3ccccc13)-c1cc(C(CC(=O)OC(C)(C)C)C(=O)OC(C)C)c(CO)c(=O)n1C2 (stereo not drawn)
GI50 [1]: 37.6 µM (inactive) | GI50 [2]: 22.1 µM (inactive) | GI50 [3]: 43.5 µM (inactive) | GI50 [4]: > 100 µM (inactive) | GI50 [5]: 71.1 µM (inactive) | GI50 [6]: 67.8 µM (inactive) | GI50 [7]: 52.8 µM (inactive) | GI50 [8]: > 93.8 µM (inactive) | GI50 [9]: 39 µM (inactive) | GI50 [10]: > 73.8 µM (inactive) | GI50 [11]: > 66.4 µM (inactive) | GI50 [12]: 17.8 µM (inactive) | GI50 [13]: > 100 µM (inactive) | GI50 [14]: 21.9 µM (inactive) | GI50 [15]: 88.5 µM (inactive) | GI50 [16]: > 100 µM (inactive) | GI50 [17]: > 100 µM (inactive) | GI50 [18]: 53.8 µM (inactive) | GI50 [19]: 4.48 µM (inactive) | GI50 [20]: 45.8 µM (inactive) | GI50 [21]: > 75.3 µM (inactive) | GI50 [22]: 4.22 µM (inactive) | GI50 [23]: 30.5 µM (inactive) | GI50 [24]: > 100 µM (inactive) | GI50 [25]: 98.6 µM (inactive) | GI50 [26]: > 78.2 µM | GI50 [27]: > 100 µM (inactive) | GI50 [28]: 40 µM (inactive) | GI50 [29]: > 100 µM (inactive) | GI50 [30]: 47.4 µM (inactive) | GI50 [31]: > 100 µM (inactive) | GI50 [32]: 58.5 µM (inactive) | GI50 [33]: 6.85 µM (inactive) | GI50 [34]: > 96.6 µM (inactive) | GI50 [35]: > 62.8 µM (inactive) | GI50 [36]: 57.3 µM (inactive) | GI50 [37]: > 100 µM (inactive) | GI50 [38]: 33.6 µM (inactive) | GI50 [39]: > 40.2 µM (inactive) | GI50 [40]: 29.2 µM (inactive) | GI50 [41]: > 86.1 µM (inactive) | GI50 [42]: 32.4 µM (inactive) | GI50 [43]: 36.9 µM (inactive) | GI50 [44]: 5.62 µM (inactive) | GI50 [45]: 10.4 µM (inactive) | GI50 [46]: > 70.5 µM (inactive) | GI50 [47]: > 36.7 µM (inactive) | GI50 [48]: 21.3 µM (inactive) | GI50 [49]: > 25.2 µM (inactive) | GI50 [50]: 3.67 µM (inactive) | GI50 [51]: 37 µM (inactive) | GI50 [52]: 24.5 µM (inactive) | GI50 [53]: 24.9 µM (inactive) | GI50 [54]: 22.2 µM (inactive) | GI50 [55]: 55.7 µM (inactive) | GI50 [56]: > 100 µM (inactive) | GI50 [57]: > 100 µM (inactive) | GI50 [58]: > 94.2 µM (inactive) | GI50 [59]: 42.5 µM (inactive)

Cc1nnc(SCc2nc(C#N)c(C#N)nc2CSc2nnc(C)s2)s1
GI50 [1]: 3.34 µM (inactive) | GI50 [2]: 5.73 µM (inactive) | GI50 [3]: 15 µM (inactive) | GI50 [4]: 6.76 µM (inactive) | GI50 [5]: 12.9 µM (inactive) | GI50 [6]: 25.1 µM (inactive) | GI50 [7]: 33.3 µM (inactive) | GI50 [8]: 19.8 µM (inactive) | GI50 [9]: 16.6 µM (inactive) | GI50 [10]: 26.9 µM (inactive) | GI50 [11]: 16.2 µM (inactive) | GI50 [12]: 15.8 µM (inactive) | GI50 [13]: 16.6 µM (inactive) | GI50 [14]: 8.53 µM (inactive) | GI50 [15]: 11.5 µM (inactive) | GI50 [16]: 14.7 µM (inactive) | GI50 [17]: 19.3 µM (inactive) | GI50 [18]: 47.5 µM (inactive) | GI50 [19]: 1.98 µM (inactive) | GI50 [20]: 17.3 µM (inactive) | GI50 [21]: 17.1 µM (inactive) | GI50 [22]: 5.74 µM (inactive) | GI50 [23]: 9.48 µM (inactive) | GI50 [24]: 6.78 µM (inactive) | GI50 [25]: 18.1 µM (inactive) | GI50 [26]: 7.66 µM | GI50 [27]: 17.6 µM (inactive) | GI50 [28]: 12.9 µM (inactive) | GI50 [29]: 16.5 µM (inactive) | GI50 [30]: 16.8 µM (inactive) | GI50 [31]: 6.82 µM (inactive) | GI50 [32]: 18.2 µM (inactive) | GI50 [33]: 12.3 µM (inactive) | GI50 [34]: 3.43 µM (inactive) | GI50 [35]: 17.9 µM (inactive) | GI50 [36]: 27.4 µM (inactive) | GI50 [37]: 5.75 µM (inactive) | GI50 [38]: 4.37 µM (inactive) | GI50 [39]: 33.3 µM (inactive) | GI50 [40]: 39.4 µM (inactive) | GI50 [41]: 14.8 µM (inactive) | GI50 [42]: 8.89 µM (inactive) | GI50 [43]: 19.6 µM (inactive) | GI50 [44]: 4.6 µM (inactive) | GI50 [45]: 24.2 µM (inactive) | GI50 [46]: 15.2 µM (inactive) | GI50 [47]: 8.49 µM (inactive) | GI50 [48]: 2.93 µM (inactive) | GI50 [49]: 1.79 µM (inactive) | GI50 [50]: 2.51 µM (inactive) | GI50 [51]: 4.55 µM (inactive) | GI50 [52]: 30.6 µM (inactive) | GI50 [53]: 19.1 µM (inactive) | GI50 [54]: 14.5 µM (inactive) | GI50 [55]: 19.1 µM (inactive) | GI50 [56]: 25.2 µM (inactive) | GI50 [57]: 13.8 µM (inactive) | GI50 [58]: 8.63 µM (inactive) | GI50 [59]: 18.7 µM (inactive)
